{
  "source": "patent US20040014639A1",
  "about": "“Product and method for control of obesity” (priority 2000, published 2004)",
  "key": {"adipocytes": {"test_system": "adipocytes", "test": "sensitisation of adipocytes to beta 3 agonist: 4 hour pre-incubation, then BRL 37344 for a further hour, lipolysis", "type": "cell-based, mouse", "details": "for lipolytic effect of the beta 3 agonist after pre-incubation: 4 hour pre-incubation at varying concentrations, then 50 nanomolar BRL 37344 for a further hour", "procedure": "Referring now to FIG. 2, an experiment was performed to determine whether hGH (FIG. 2A) or AOD 9604 (FIG. 2B) sensitises the adipocytes to the actions of the beta 3 agonists. First, the adipocytes were incubated with hGH or AOD 9604 at varying concentrations for four hours. The cells were then further incubated with a half-maximal concentration of BRL 37344 of 50 nanomolar for a further hour."}, "beta 3 messenger RNA [1]": {"test_system": "beta 3 messenger RNA", "test": "beta 3 messenger RNA expression after chronic treatment of ob/ob mice", "type": "in vivo", "details": "versus control ob/ob mice"}, "3T3-F442 cells": {"test_system": "3T3-F442 cells", "test": "in vitro lipolysis (glycerol release), 1 hour incubation", "type": "cell-based, mouse", "details": "for shape of lipolytic dose response: 1 hour, varying concentrations, agent alone", "procedure": "Referring now to FIG. 1, 3T3-F442 cells (an immortal mouse adipocyte cell line) were incubated for 1 hour with varying concentrations of the rodent beta 3 agonist BRL 37344. […] In a third sample, AOD 9604 and BRL 37344 were co-administered with varying concentrations of AOD 9604, together with the maximal concentration of 1 μM of the BRL 37344."}, "beta 3 messenger RNA [2]": {"test_system": "beta 3 messenger RNA", "test": "beta 3 messenger RNA expression in adipocytes after four-hour incubation (PCR/RT-PCR, normalised to β-actin)", "type": "cell-based, mouse", "details": "4 hour incubation", "procedure": "Referring now to FIG. 3, the effect of the four-hour incubation of the adipocytes with hGH (FIG. 3A) or AOD 9604 (FIG. 3B) at two concentrations on expression of beta 3 messenger RNA was assessed using PCR/RT-PCR analysis of the content of beta 3 messenger RNA, using β-actin to normalise the data."}, "ob/ob mice": {"test_system": "ob/ob mice", "test": "fat mass after chronic treatment of ob/ob mice", "type": "in vivo", "excerpt": "It is believed that the obesity reducing effect of AOD9604 is at least in part a result of this sensitisation to the lipolytic affects of endogenous catecholamines (ie. epinephrine). Accordingly, chronic co-administration of AOD9604 and a beta 3 agonist will enhance the anti-obesity action of either agent administered alone."}, "[3]": {"target": "beta 3 adrenergic receptor (Mus musculus, UniProt P25962)", "sequence (P25962 whole entry)": "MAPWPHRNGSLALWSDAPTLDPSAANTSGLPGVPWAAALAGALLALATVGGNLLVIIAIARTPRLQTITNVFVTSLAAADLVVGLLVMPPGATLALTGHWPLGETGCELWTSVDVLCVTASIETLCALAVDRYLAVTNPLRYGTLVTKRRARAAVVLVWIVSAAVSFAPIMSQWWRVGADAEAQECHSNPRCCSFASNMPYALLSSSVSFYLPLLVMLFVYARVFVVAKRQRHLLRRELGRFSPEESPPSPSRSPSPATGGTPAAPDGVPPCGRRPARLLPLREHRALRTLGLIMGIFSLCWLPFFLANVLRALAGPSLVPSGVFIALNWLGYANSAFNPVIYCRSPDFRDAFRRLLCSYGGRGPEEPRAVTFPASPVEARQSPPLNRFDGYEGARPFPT", "test": "agonism at the beta 3 adrenergic receptor"}, "C57Bl/6J (Ob/Ob) mouse": {"test_system": "C57Bl/6J (Ob/Ob) mouse", "details": "by injection; cited from earlier work"}},
  "note": "“Also recorded” adds a separate entry of the source.",
  "data": [
    {"molecule": "hGH: human growth hormone", "values": [
      {"measurement": "lipolytic effect of the beta 3 agonist after pre-incubation", "setting": "adipocytes", "value": "synergistic effect; also recorded: enhanced"},
      {"measurement": "beta 3 messenger RNA in brown adipocytes", "setting": "beta 3 messenger RNA [1]; 1.0 mg/kg/day for 14 days", "value": "increase"},
      {"measurement": "beta 3 messenger RNA in white adipocytes", "setting": "beta 3 messenger RNA [1]; 1.0 mg/kg/day for 14 days", "value": "increase"}
    ]},
    {"molecule": "Tyr-hGH 177-191 [AOD9604]", "values": [
      {"measurement": "shape of lipolytic dose response", "setting": "3T3-F442 cells", "value": "bell-shaped acute lipolytic response"},
      {"measurement": "lipolytic effect of the beta 3 agonist after pre-incubation", "setting": "adipocytes", "value": "synergistic effect; also recorded: enhanced"},
      {"measurement": "expression of beta 3 messenger RNA", "setting": "beta 3 messenger RNA [2]", "value": "increase"},
      {"measurement": "beta 3 messenger RNA in brown adipocytes", "setting": "beta 3 messenger RNA [1]; 0.25 mg/kg/day for 14 days", "value": "increase"},
      {"measurement": "beta 3 messenger RNA in white adipocytes", "setting": "beta 3 messenger RNA [1]; 0.25 mg/kg/day for 14 days", "value": "increase"},
      {"measurement": "fat mass of the treated animals", "setting": "ob/ob mice", "value": "significant reduction"},
      {"measurement": "agonist activity at the beta 3 adrenergic receptor", "setting": "[3]", "value": "not an agonist"}
    ]},
    {"molecule": "C[C@H](Cc1ccc(OCC(=O)O)cc1)NC[C@H](O)c1cccc(Cl)c1", "note": "[BRL 37344]", "values": [
      {"measurement": "concentration giving maximal lipolytic effect", "setting": "3T3-F442 cells; 1 hour incubation", "value": 1, "unit": "µM"},
      {"measurement": "maximal effect, glycerol released", "setting": "3T3-F442 cells; 1 hour incubation, at 1 μM", "value": "approximately 6 μM per milligram protein"},
      {"measurement": "shape of lipolytic dose response", "setting": "3T3-F442 cells", "value": "sigmoid-shaped dose response"},
      {"measurement": "EC50", "setting": "adipocytes; adipocytes, read-out: half-maximal concentration (lipolysis)", "value": 50, "unit": "nM"}
    ]},
    {"molecule": "hGH 177-191: synthetic peptide corresponding to amino acid residues 177-191 of the human growth hormone sequence (LRIVQCRSVEGSCGF; UniProt P01241 203-217, looked up, fragment)", "values": [
      {"measurement": "adipose tissue mass", "setting": "C57Bl/6J (Ob/Ob) mouse", "value": "reduce"},
      {"measurement": "body weight gain", "setting": "C57Bl/6J (Ob/Ob) mouse", "value": "reduce"}
    ]}
  ]
}
